Assay [1] has as its system A549. Briefly: Cytotoxicity against human A549 cells assessed as cell viability after 48 hrs by MTT assay. The conditions noted are these: A549, 48 h. The class given is functional, cell-based. For orientation: Formazan colour is commonly taken as a measure of viable cells.
For assay [2], the system named is NCI-H727. Description: Cytotoxicity against human NCI-H727 cells assessed as cell viability after 48 hrs by MTT assay. The class given is functional, cell-based. The following applies: NCI-H727, 48 h.
The subject of assay [3] is A549. Description: Induction of cell cycle arrest in human A549 cells assessed as accumulation at SubG1 phase at IC50 after 48 hrs by flow cytometry. The class given is functional, cell-based. (Flow cytometry measures light scatter and fluorescence of single cells or particles in a stream.)
In assay [4] the test system is A549. Description: Induction of apoptosis in human A549 cells assessed as cell shrinkage at 0.1 to 1 uM after 24 hrs by fluorescence microscopic analysis. The class given is functional, cell-based. The conditions noted are these: dose 0.1-1 µM.
Assay [5] concerns A549. Briefly: Induction of autophagy in human A549 cells by acridine orange and propidium iodide staining based fluorescence microscopic analysis. The class given is functional, cell-based. The following applies: DDE = dose-dependent effect.
Assay [6] has as its target Histone deacetylase 3 (Homo sapiens, UniProt O15379). Briefly: Inhibition of HDAC3 (unknown origin) by colorimetric method.
The target in assay [7] is Histone deacetylase 5 (Homo sapiens, UniProt Q9UQL6). Briefly: Inhibition of HDAC5 (unknown origin) by colorimetric method.
Histone deacetylase 5, sequence (Q9UQL6 whole entry): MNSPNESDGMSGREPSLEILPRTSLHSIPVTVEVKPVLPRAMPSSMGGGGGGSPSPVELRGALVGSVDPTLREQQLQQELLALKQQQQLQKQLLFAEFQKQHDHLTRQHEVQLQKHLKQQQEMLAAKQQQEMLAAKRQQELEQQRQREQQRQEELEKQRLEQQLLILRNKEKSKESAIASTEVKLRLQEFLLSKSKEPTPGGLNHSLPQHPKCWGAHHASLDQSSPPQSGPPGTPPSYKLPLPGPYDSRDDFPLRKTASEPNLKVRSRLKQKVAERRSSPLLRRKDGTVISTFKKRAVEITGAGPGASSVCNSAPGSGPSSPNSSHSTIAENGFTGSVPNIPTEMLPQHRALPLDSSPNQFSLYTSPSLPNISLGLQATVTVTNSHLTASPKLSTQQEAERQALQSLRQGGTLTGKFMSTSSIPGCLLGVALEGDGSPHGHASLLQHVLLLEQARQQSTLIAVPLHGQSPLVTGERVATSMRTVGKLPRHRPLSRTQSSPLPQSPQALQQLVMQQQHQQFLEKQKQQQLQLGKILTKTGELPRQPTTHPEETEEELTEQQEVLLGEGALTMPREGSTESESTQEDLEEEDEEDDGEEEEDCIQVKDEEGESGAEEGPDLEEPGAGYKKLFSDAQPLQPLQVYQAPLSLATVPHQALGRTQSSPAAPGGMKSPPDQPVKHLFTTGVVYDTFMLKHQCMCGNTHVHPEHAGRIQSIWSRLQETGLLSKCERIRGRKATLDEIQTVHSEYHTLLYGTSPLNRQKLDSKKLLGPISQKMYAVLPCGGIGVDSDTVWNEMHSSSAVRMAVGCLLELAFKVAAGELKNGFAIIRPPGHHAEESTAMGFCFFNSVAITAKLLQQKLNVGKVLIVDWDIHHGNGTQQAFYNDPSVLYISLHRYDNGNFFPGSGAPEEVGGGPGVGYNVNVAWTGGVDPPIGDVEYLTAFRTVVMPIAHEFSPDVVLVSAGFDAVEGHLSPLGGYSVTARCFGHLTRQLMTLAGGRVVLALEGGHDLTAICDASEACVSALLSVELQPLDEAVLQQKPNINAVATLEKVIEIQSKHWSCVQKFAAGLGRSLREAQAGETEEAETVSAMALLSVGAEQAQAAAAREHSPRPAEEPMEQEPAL
Assay [8] deals with T1, Protein deacetylase HDAC6 (Homo sapiens, UniProt Q9UBN7).
T1 sequence (Q9UBN7 whole entry): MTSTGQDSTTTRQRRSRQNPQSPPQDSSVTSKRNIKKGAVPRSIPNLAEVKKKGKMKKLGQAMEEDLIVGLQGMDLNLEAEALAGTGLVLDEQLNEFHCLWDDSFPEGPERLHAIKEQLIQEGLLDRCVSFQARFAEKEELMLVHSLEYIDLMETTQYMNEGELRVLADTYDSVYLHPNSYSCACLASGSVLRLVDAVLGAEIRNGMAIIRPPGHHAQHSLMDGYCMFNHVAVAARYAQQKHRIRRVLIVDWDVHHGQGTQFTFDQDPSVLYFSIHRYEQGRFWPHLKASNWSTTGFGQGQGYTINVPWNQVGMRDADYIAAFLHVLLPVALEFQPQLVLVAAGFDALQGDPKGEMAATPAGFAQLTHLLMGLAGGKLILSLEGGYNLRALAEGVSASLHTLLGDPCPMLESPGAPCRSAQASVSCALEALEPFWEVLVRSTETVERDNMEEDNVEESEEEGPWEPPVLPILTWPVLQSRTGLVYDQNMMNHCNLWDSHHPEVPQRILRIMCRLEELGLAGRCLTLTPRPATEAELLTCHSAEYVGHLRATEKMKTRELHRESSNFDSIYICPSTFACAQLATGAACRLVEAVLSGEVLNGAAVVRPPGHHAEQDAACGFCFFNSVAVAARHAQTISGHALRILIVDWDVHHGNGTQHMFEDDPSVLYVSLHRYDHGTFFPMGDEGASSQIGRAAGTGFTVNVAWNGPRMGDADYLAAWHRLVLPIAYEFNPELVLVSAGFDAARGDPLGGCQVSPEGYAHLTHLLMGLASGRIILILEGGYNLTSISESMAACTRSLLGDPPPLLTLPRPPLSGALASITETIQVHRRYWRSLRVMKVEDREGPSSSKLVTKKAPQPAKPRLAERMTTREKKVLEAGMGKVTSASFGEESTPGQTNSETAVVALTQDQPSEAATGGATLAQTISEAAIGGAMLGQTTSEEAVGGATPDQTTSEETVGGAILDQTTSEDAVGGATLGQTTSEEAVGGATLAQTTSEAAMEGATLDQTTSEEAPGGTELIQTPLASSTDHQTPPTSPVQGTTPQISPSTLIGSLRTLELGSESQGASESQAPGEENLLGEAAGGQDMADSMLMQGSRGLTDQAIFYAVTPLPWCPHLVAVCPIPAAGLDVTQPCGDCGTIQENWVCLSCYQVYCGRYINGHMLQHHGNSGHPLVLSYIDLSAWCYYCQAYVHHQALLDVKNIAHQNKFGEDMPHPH
Description: Inhibition of HDAC6 (unknown origin) by colorimetric method.

The species named for assay [9] is Homo sapiens. Briefly: Selectivity index, ratio of IC50 for HDAC 1 (unknown origin) to IC50 for HDAC 6 (unknown origin).
Assay [10] is filed under the species Homo sapiens. Briefly: Selectivity index, ratio of IC50 for HDAC 2 (unknown origin) to IC50 for HDAC 6 (unknown origin).
The species named for assay [11] is Homo sapiens. Briefly: Selectivity index, ratio of IC50 for HDAC3 (unknown origin) to IC50 for HDAC 6 (unknown origin).
For assay [12], the species on record is Homo sapiens. Briefly: Selectivity index, ratio of IC50 for HDAC8 (unknown origin) to IC50 for HDAC 6 (unknown origin).
The species entered for assay [13] is Homo sapiens. Briefly: Selectivity index, ratio of IC50 for HDAC 1 (unknown origin) to IC50 for HDAC 3 (unknown origin).
The species entered for assay [14] is Homo sapiens. Description: Selectivity index, ratio of IC50 for HDAC 4 (unknown origin) to IC50 for HDAC 3 (unknown origin).
Assay [15] is filed under the species Homo sapiens. Description: Selectivity index, ratio of IC50 for HDAC 7 (unknown origin) to IC50 for HDAC 3 (unknown origin).
For assay [16], the species on record is Homo sapiens. Description: Selectivity index, ratio of IC50 for HDAC 8 (unknown origin) to IC50 for HDAC 3 (unknown origin).
The species entered for assay [17] is Homo sapiens. Briefly: Selectivity index, ratio of IC50 for HDAC 3 (unknown origin) to IC50 for HDAC 1 (unknown origin).
Assay [18] is filed under the species Homo sapiens. Description: Selectivity index, ratio of IC50 for HDAC6 (unknown origin) to IC50 for HDAC 1 (unknown origin).
The species entered for assay [19] is Homo sapiens. Briefly: Selectivity index, ratio of IC50 for HDAC7 (unknown origin) to IC50 for HDAC 1 (unknown origin).
Assay [20] relates to A549. Briefly: Downregulation of HDAC1 expression in human A549 cells at 0.1 to 1 uM after 24 hrs by Western blot analysis. The class given is functional, cell-based. The conditions noted are these: dose 0.1-1 µM.
Assay [21] has as its system A549. Briefly: Downregulation of HDAC3 expression in human A549 cells at 0.1 to 1 uM after 24 hrs by Western blot analysis. The class given is functional, cell-based. The following applies: dose 0.1-1 µM. In general terms: Immunoblotting shows a protein as a band on a membrane.

The results in this text go back to ChEMBL document CHEMBL5113502, “Accommodation of ring C expanded deoxyvasicinone in the HDAC inhibitory pharmacophore culminates into a tractable anti-lung cancer agent and pH-responsive nanocarrier” (Eur J Med Chem, 2022).

Molecules are shown by their SMILES. The source made the active and inactive calls. The calls are words filed in the database; no cut-off is given here.

Histone deacetylase 3, sequence (O15379 whole entry): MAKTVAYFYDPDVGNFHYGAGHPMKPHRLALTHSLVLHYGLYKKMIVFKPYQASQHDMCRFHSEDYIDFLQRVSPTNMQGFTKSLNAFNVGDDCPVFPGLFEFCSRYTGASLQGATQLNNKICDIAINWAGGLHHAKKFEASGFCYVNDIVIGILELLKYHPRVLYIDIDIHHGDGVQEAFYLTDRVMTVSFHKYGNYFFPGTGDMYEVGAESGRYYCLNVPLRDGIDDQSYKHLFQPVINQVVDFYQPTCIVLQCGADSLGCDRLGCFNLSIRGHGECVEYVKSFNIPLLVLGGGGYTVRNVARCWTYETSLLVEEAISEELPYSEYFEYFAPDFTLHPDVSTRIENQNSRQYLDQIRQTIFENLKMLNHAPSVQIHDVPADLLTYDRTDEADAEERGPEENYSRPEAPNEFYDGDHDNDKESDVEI

For the compound `O=C(/C=C/c1ccc(CNc2ccc3nc4n(c(=O)c3c2)CCCCC4)cc1)NO`, the IC50 in assay [1] was determined as 855 nM; in assay [2], 960 nM; in [6], 68.5 nM; in assay [7], 617 nM; in assay [8] it was 12.9 nM. The outcome in assay [3] and in assay [4] was Active. Further, the Activity entry in assay [5] is “Dde”. Also, the Ratio IC50 stood at 3.86 in assay [9]; 97.7 in assay [10]; 5.31 in [11]; 13.7 in assay [12]; 0.72 in [13]; 23.8 in assay [14]. The Ratio IC50 came to 59.6 in [15]; 2 in [16]; 1.37 in [17]; 0.25 in assay [18]; 81.8 in assay [19]. For the same compound, the inhibition entry in assay [20] and in assay [21] was “Active” each time.

What is called IC50 is the point on the concentration scale where inhibition reaches its midpoint.
